In the assay the test system is P388. The experiment in a line: Cytotoxicity against mouse P388 cells. The assay is classed as functional, cell-based.

On to `COc1ccc(C[C@H]2C(=O)N[C@@H](C)C(=O)N(C)[C@H]3Cc4ccc(cc4)Oc4cc(ccc4OC)C[C@@H](C(=O)N[C@H](C)C(=O)N(N)[C@@H](C)C(=O)N2C)N(C)C3=O)cc1`, for which the half-maximal inhibitory concentration (IC50) worked out at 0.0057 µM.
The same measure for `COc1ccc(C[C@H]2C(=O)N(C)[C@@H](C)C(=O)N(C)[C@H]3Cc4ccc(cc4)Oc4cc(ccc4OC)C[C@@H](C(=O)N(C)[C@H](C)C(=O)N(C)[C@@H](C)C(=O)N2C)N(C)C3=O)cc1`: 3.1 µM; for `COc1ccc(C[C@H]2C(=O)N(C)[C@@H](C)C(=O)N(C)[C@H]3Cc4ccc(cc4)Oc4cc(ccc4OC)C[C@@H](C(=O)N(C)[C@H](C)C(=O)N[C@@H](C)C(=O)N2C)N(C)C3=O)cc1`: 10 µM.
The value for `COc1ccc(C[C@H]2C(=O)N(C)[C@@H](C)C(=O)N(C)[C@H]3Cc4ccc(cc4)Oc4cc(c(Br)cc4OC)C[C@@H](C(=O)N(C)[C@H](C)C(=O)N(C)[C@@H](C)C(=O)N2C)N(C)C3=O)cc1` was more than 110 µM; that for `COc1ccc(C[C@H]2C(=O)N(C)[C@@H](C)C(=O)N(C)[C@H]3Cc4ccc(cc4)Oc4cc(ccc4OC)C[C@@H](C(=O)N(C)[C@H](C)C(=O)N(N)[C@@H](C)C(=O)N2C)N(C)C3=O)cc1` was 49 µM; that for `COc1ccc(C[C@H]2C(=O)N[C@@H](C)C(=O)N(C)[C@H]3Cc4ccc(cc4)Oc4cc(ccc4OC)C[C@@H](C(=O)N[C@H](C)C(=O)N[C@@H](C)C(=O)N2C)N(C)C3=O)cc1` was 0.0022 µM.

The values above are taken from ChEMBL document CHEMBL1764986, “Per-N-methylated analogues of an antitumor bicyclic hexapeptide RA-VII” (Bioorg Med Chem, 2011).
